Measurements as given in patent US20220298135A1, “5-HETEROARYL-PYRIDIN-2-AMINE COMPOUNDS AS NEUROPEPTIDE FF RECEPTOR ANTAGONISTS” (Domain Therapeutics, priority 2019, published 2022).
pIC50: −log10 of the molar value.

Tests used:
[1] = target: T1, human NPFFR1 (hNPFFR1) receptor (Homo sapiens, UniProt Q9GZQ6); test: Human NPFFR1 evaluation using BRET biosensors (antagonist IC50); format: cell-based; conditions: hNPFFR1 transiently over-expressed in HEK-293 T cells; BRET signal; stimulation by EC80 RFRP-3
T1 construct: expressed in transfected cells; host or cells: HEK-293 T cells, transient co-transfection with polyethylenimine
T1 sequence (Q9GZQ6 whole entry): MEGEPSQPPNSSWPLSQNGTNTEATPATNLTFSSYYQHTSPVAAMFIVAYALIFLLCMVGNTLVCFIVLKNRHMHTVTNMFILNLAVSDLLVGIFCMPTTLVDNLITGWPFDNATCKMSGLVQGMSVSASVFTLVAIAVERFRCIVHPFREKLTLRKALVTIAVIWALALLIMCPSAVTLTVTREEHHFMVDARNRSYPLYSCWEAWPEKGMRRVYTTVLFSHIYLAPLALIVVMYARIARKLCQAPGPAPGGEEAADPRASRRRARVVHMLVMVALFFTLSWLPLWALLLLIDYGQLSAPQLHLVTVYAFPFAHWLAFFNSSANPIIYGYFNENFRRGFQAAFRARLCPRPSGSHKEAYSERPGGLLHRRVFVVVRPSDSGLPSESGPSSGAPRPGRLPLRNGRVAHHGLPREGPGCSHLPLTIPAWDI
Protocol: Compounds of the present invention were tested successively for their agonist and antagonist activities on human NPFFR1 (hNPFFR1) receptor transiently over-expressed in HEK-293 T cells. Compounds exert agonist activity if, by themselves in absence of neuropeptide RFRP-3 (also named NPVF) they activate hNPFFR1; and they exert antagonist activity if they decrease the action of RFRP-3 on the receptor.
The assay used to measure compound activity is based on BRET (Bioluminescence Resonance Energy Transfer) biosensors and is designed to monitor the plasma membrane translocation of protein that interacts with specific Ga subunit. The specific effector (luciferase tagged: BRET donor) recruited at the membrane will be in close proximity to a plasma membrane anchor (GFP tagged: BRET acceptor) to induce a BRET signal. Biosensors are described in the patent application WO 2016/041093 A1 (Biosensors for monitoring biomolecule localization and trafficking in cells).
HEK-293 T cells are maintained in Dulbecco's Modified Eagle's Medium supplemented with 10% Foetal Calf Serum, 1% Penicillin/Streptomycin at 37° C./5% CO2.
Cells are co-transfected using polyethylenimine (25 kDa linear) with four DNA plasmids encoding: hNPFFR1, GαoB, a Gi family specific intracellular effector fused to luciferase (BRET donor), a plasma membrane effector fused to GFP (BRET acceptor). After transfection, cells are cultured for 48 h at 37° C./5% CO2.
Receptor activity is detected by changes in BRET signal.
On the day of the assay, cells are detached using trypsin 0.05%, resuspended in assay buffer (1.8 mM CaCl2, 1 mM MgCl2, 2.7 mM KCl, 137 mM NaCl, 0.4 mM NaH2PO4, 5.5 mM D-Glucose, 11.9 mM NaHCO3, 25 mM Hepes) and seeded in 384 well plate at a density of 20,000 cells per well. Then, plates are equilibrated 3.5 hours at 37° C. before adding compounds.
Compounds and luciferase substrate are added to the cells using an automated device (Freedom Evo®, Tecan) and BRET readings are collected on EnVision (PerkinElmer) with specific filters (410 nm BW 80 nm, 515 nm BW 30 nm).
Agonist and antagonist activities of compounds are consecutively evaluated on the same cell plate. Agonist activity is first measured after 10 minutes incubation with compound alone on the cells. Then, cells are stimulated by an EC80 RFRP-3 concentration and luminescence is recorded for additional 10 minutes. EC80 RFRP-3 concentration is the concentration giving 80% of the maximal RFRP-3 response. Agonist or antagonist activities are evaluated in comparison to basal signals evoked by assay buffer or EC80 RFRP-3 alone, respectively.
For IC50 determination, a dose-response test is performed using 20 concentrations (ranging over 6 logs) of each compound. Dose-response curves are fitted using the sigmoidal dose-response (variable slope) analysis in GraphPad Prism software (GraphPad Software) and IC50 of antagonist activity is calculated. Dose-response experiments are performed in duplicate, in two independent experiments.

Row | SMILES | pIC50 [1] | melting point
1 | Cl.Nc1ccc(-c2c(F)c(F)cc3ccc(O)nc23)c(N)n1 [Example 64, 8-(2,6-diaminopyridin-3-yl)-6,7-difluoroquinolin-2-ol] | > 7.00 | > 250 °C
2 | CCc1nc(N)ccc1-c1cccc2c1OCCC2.Cl [Example 66, 5-(chroman-8-yl)-6-ethylpyridin-2-amine] | > 7.00 | 180 to 192 °C
3 | CC(C)Cc1nc(N)ccc1-c1cccc2cccnc12.Cl [Example 67, 6-isobutyl-5-(quinolin-8-yl)pyridin-2-amine] | > 7.00 | 100 to 140 °C
4 | Cl.Nc1ccc(-c2cccc3cccnc23)c(CC2CCC2)n1 [Example 68, 6-(cyclobutylmethyl)-5-(quinolin-8-yl)pyridin-2-amine] | > 7.00 | 120 to 180 °C
5 | Cl.Nc1ccc(-c2c(F)ccc3cccnc23)c(CCCC(F)(F)F)n1 [Example 71, 5-(7-fluoroquinolin-8-yl)-6-(4,4,4-trifluorobutyl)pyridin-2-amine] | > 7.00 | 70 to 130 °C
6 | Cl.Nc1ccc(-c2c(F)ccc3cccnc23)c(CC2CC2)n1 [Example 72, 6-(cyclopropylmethyl)-5-(7-fluoroquinolin-8-yl)pyridin-2-amine] | > 7.00 | 170 to 207 °C
7 | CC(C)CCc1nc(N)ccc1-c1c(F)ccc2cccnc12.Cl [Example 73, 5-(7-fluoroquinolin-8-yl)-6-isopentylpyridin-2-amine] | > 7.00 | 100 to 140 °C
8 | CCc1nc(N)ccc1-c1c(F)ccc2ccc(C)nc12.Cl [Example 76, 6-ethyl-5-(7-fluoro-2-methylquinolin-8-yl)pyridin-2-amine] | > 7.00 | 95 to 120 °C
9 | CCc1nc(N)ccc1-c1cc(C)cc2cccnc12.Cl [Example 77, 6-ethyl-5-(6-methylquinolin-8-yl)pyridin-2-amine] | > 7.00 | 100 to 140 °C
10 | CCc1nc(N)ccc1-c1ccccc1-c1ccc(N2CCCCC2)nc1.Cl [Example 80, 6-ethyl-5-(2-(6-(piperidin-1-yl)pyridin-3-yl)phenyl)pyridin-2-amine] | 6.00 to 7.00 | 50 to 80 °C
11 | CCc1nc(N)ccc1-c1ccccc1-c1ccc(C(F)(F)F)nc1.Cl [Example 81, 6-ethyl-5-(2-(6-(trifluoromethyl)pyridin-3-yl)phenyl)pyridin-2-amine] | 6.00 to 7.00 | > 250 °C
12 | CCc1nc(N)ccc1-c1ccccc1-c1ccc(N2CCOCC2)nc1.Cl [Example 84, 6-ethyl-5-(2-(6-morpholinopyridin-3-yl)phenyl)pyridin-2-amine] | > 7.00 | 95 to 110 °C
13 | CCc1nc(N)ccc1-c1ccccc1-c1ccc(O)nc1.Cl [Example 88, 5-(2-(6-amino-2-ethylpyridin-3-yl)phenyl)pyridin-2-ol] | 6.00 to 7.00 | 95 to 120 °C
14 | CCc1nc(N)ccc1-c1cccc2c(C)ccnc12.Cl [Example 91, 6-ethyl-5-(4-methylquinolin-8-yl)pyridin-2-amine] | 6.00 to 7.00 | > 250 °C
15 | CCc1nc(N)ccc1-c1cccc2ccc(N)nc12.Cl.Cl [Example 92, 8-(6-amino-2-ethylpyridin-3-yl)quinolin-2-amine] | 6.00 to 7.00 | 200 to 250 °C
16 | CCc1nc(N)ccc1-c1cccc2cc(F)cnc12.Cl [Example 97, 6-ethyl-5-(3-fluoroquinolin-8-yl)pyridin-2-amine] | > 7.00 | 210 to 245 °C
17 | CCc1nc(N)ccc1-c1c(OC)ccc2cccnc12.Cl [Example 98, 6-ethyl-5-(7-methoxyquinolin-8-yl)pyridin-2-amine] | > 7.00 | 230 to 250 °C
18 | CCc1nc(N)ccc1-c1nccc2cccnc12.Cl [Example 100, 6-ethyl-5-(1,7-naphthyridin-8-yl)pyridin-2-amine] | < 6.00 | 160 to 200 °C

Further lines, results first:

Row | pIC50 [1] | melting point | SMILES
19 | > 7.00 | 210 to 230 °C | Cl.Nc1ccc(-c2c(F)ccc3ccc(O)nc23)c(N)n1 [Example 62, 8-(2,6-diaminopyridin-3-yl)-7-fluoroquinolin-2-ol]
20 | > 7.00 | 150 to 195 °C | CCc1nc(N)ccc1-c1c(F)ccc2cccnc12.Cl [Example 65, 6-ethyl-5-(7-fluoroquinolin-8-yl)pyridin-2-amine]
21 | 6.00 to 7.00 | 85 to 145 °C | Cl.Nc1ccc(-c2c(F)ccc3cccnc23)c(CCC(F)(F)F)n1 [Example 69, 5-(7-fluoroquinolin-8-yl)-6-(3,3,3-trifluoropropyl)pyridin-2-amine]
22 | > 7.00 | 130 to 170 °C | CC(C)Cc1nc(N)ccc1-c1c(F)ccc2cccnc12.Cl [Example 70, 5-(7-fluoroquinolin-8-yl)-6-isobutylpyridin-2-amine]
23 | > 7.00 | 50 to 56 °C | CCc1nc(N)ccc1-c1cc(F)cc2cccnc12.Cl [Example 74, 6-ethyl-5-(6-fluoroquinolin-8-yl)pyridin-2-amine]
24 | < 6.00 | 120 to 137 °C | CCc1nc(N)ccc1-c1ccc(C(F)(F)F)c2cccnc12.Cl [Example 75, 6-ethyl-5-(5-(trifluoromethyl)quinolin-8-yl)pyridin-2-amine]
25 | 6.00 to 7.00 | 54 to 70 °C | CCc1nc(N)ccc1-c1ccc(F)cc1-c1ccc(N2CCOCC2)nc1.Cl [Example 82, 6-ethyl-5-(4-fluoro-2-(6-morpholinopyridin-3-yl)phenyl)pyridin-2-amine]
26 | 6.00 to 7.00 | 85 to 100 °C | CCc1nc(N)ccc1-c1cc(F)ccc1-c1ccc(N2CCOCC2)nc1.Cl [Example 83, 6-ethyl-5-(5-fluoro-2-(6-morpholinopyridin-3-yl)phenyl)pyridin-2-amine]
27 | 6.00 to 7.00 | 120 to 150 °C | CCc1nc(N)ccc1-c1ccccc1-c1cncc(C)c1.Cl [Example 85, 6-ethyl-5-(2-(5-methylpyridin-3-yl)phenyl)pyridin-2-amine]
28 | 6.00 to 7.00 | > 250 °C | CCc1nc(N)ccc1-c1ccccc1-c1ccc(F)nc1.Cl [Example 87, 6-ethyl-5-(2-(6-fluoropyridin-3-yl)phenyl)pyridin-2-amine]
29 | 6.00 to 7.00 | 165 to 180 °C | CCc1nc(N)ccc1-c1ccccc1-c1ccc(OC)nc1 [Example 89, 6-ethyl-5-(2-(6-methoxypyridin-3-yl)phenyl)pyridin-2-amine]
30 | > 7.00 | 110 to 150 °C | CCc1nc(N)ccc1-c1cccc2ccc(C)nc12.Cl [Example 90, 6-ethyl-5-(2-methylquinolin-8-yl)pyridin-2-amine]
31 | > 7.00 | 90 to 130 °C | CCc1nc(N)ccc1-c1c(C)ccc2cccnc12.Cl [Example 93, 6-ethyl-5-(7-methylquinolin-8-yl)pyridin-2-amine]
32 | > 7.00 | 35 to 70 °C | CCOc1ccc2cccc(-c3ccc(N)nc3CC)c2n1.Cl [Example 94, 5-(2-ethoxyquinolin-8-yl)-6-ethylpyridin-2-amine]
33 | > 7.00 | > 250 °C | CCc1nc(N)ccc1-c1cccc2cc(C)cnc12.Cl [Example 95, 6-ethyl-5-(3-methylquinolin-8-yl)pyridin-2-amine]
34 | 6.00 to 7.00 | > 250 °C | CCc1nc(N)ccc1-c1ccc(C)c2cccnc12.Cl [Example 96, 6-ethyl-5-(5-methylquinolin-8-yl)pyridin-2-amine]
35 | > 7.00 | 90 to 130 °C | CCc1nc(N)ccc1-c1cccc2ccc(C(F)(F)F)nc12.Cl [Example 99, 6-ethyl-5-(2-(trifluoromethyl)quinolin-8-yl)pyridin-2-amine]
36 | 6.00 to 7.00 | > 250 °C | CCc1nc(N)ccc1-c1cccc2nccnc12.Cl [Example 101, 6-ethyl-5-(quinoxalin-5-yl)pyridin-2-amine]
